This passage reports melting point and Ki results from PMC5945563 (Chemistry Central Journal, 2018).

One data set addresses human D2L receptor (Homo sapiens, UniProt P14416). As to the kind of experiment: Radioligand binding assay, [3H]-raclopride, HEK293 cell membranes.
The target in the next data set is human 5-HT6 receptor (Homo sapiens, UniProt P50406). In words: Radioligand binding assay, [3H]-LSD, HEK293 cell membranes.
The next data set has as its target human 5-HT7b receptor (Homo sapiens, UniProt P34969). As to the kind of experiment: Radioligand binding assay, [3H]-5-CT, HEK293 cell membranes.
The next data set deals with T1, human 5-HT1A receptor (Homo sapiens, UniProt P08908).
T1 sequence (P08908 1-422): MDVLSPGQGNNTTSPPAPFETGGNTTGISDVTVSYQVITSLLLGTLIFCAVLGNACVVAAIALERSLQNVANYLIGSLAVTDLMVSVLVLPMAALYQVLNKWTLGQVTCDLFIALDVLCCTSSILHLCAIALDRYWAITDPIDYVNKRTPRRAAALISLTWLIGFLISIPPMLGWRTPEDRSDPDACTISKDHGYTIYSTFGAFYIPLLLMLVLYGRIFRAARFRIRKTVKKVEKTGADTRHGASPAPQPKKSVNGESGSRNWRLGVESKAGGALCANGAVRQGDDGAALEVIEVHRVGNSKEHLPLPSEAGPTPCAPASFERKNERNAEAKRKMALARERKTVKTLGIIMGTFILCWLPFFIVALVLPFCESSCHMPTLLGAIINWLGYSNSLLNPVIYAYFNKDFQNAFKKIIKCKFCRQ
As to the kind of experiment: Radioligand binding assay, [3H]-8-OH-DPAT, HEK293 cell membranes.

Where a name gives a salt, the structure may show the parent alone.

Chain of human 5-HT6 receptor (P50406 whole entry): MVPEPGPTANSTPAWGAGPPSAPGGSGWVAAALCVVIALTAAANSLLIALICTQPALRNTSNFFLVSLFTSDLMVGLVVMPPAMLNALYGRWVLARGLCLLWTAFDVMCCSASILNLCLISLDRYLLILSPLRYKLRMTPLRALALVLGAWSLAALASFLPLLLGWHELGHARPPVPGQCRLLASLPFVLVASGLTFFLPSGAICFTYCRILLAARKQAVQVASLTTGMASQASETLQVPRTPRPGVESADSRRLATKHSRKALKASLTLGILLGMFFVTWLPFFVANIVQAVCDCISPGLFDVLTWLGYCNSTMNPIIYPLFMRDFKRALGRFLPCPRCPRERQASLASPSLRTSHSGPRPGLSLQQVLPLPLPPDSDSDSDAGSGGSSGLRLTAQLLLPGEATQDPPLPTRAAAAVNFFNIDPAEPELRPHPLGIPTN
Chain of human D2L receptor (P14416 whole entry): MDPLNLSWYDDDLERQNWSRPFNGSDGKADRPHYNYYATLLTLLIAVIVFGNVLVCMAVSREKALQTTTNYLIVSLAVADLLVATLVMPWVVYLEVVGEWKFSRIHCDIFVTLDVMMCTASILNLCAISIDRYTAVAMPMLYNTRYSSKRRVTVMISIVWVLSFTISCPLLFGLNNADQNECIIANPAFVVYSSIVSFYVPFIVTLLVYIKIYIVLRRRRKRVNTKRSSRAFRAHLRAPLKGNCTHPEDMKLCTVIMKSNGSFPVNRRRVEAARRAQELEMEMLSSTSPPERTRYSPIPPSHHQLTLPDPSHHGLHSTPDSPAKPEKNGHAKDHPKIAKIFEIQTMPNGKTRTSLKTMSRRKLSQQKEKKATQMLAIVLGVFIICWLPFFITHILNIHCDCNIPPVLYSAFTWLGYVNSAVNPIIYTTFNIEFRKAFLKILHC
Chain of human 5-HT7b receptor (P34969 1-432 limits assumed): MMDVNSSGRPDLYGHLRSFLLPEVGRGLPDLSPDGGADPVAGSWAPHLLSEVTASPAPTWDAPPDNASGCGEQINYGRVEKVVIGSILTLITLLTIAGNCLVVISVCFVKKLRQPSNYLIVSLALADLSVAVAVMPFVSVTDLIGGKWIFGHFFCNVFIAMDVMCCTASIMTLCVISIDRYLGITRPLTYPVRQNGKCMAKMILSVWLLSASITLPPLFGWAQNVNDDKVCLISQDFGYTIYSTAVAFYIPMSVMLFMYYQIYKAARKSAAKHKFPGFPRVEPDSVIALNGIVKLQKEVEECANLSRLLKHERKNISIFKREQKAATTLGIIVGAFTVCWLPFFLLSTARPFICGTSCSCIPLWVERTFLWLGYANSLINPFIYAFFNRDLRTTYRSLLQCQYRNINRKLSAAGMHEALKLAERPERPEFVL

Consider `O=S(=O)(NCCCCN1CCN(c2ccccc2)CC1)c1cc2ccccc2cn1` (as salt: hydrochloride) [Compound 1, N-(4-(4-phenyl)piperazin-1-yl)butyl)isoquinoline-3-sulfonamide hydrochloride], for which the melting point was 198 to 199 °C.

`Cl.O=S(=O)(NCCCCN1CCN(c2cccc(Cl)c2)CC1)c1cc2ccccc2cn1` [Compound 2, N-(4-(4-(3-chlorophenyl)piperazin-1-yl)butyl)isoquinoline-3-sulfonamide hydrochloride] came in with a melting point of 246 to 247 °C. Also, the Ki at human D2L receptor stood at 47 nM. The molecule also showed a Ki on human 5-HT6 receptor of 436 nM. Further, on human 5-HT7b receptor, the Ki was found to be 49 nM. This molecule gave a Ki at human 5-HT1A receptor of 38 nM.

`Cc1cccc(N2CCN(CCCCNS(=O)(=O)c3cc4ccccc4cn3)CC2)c1C.Cl` [Compound 4, N-(4-(4-(2,3-dimethylphenyl)piperazin-1-yl)butyl)isoquinoline-3-sulfonamide hydrochloride] displayed a melting point of 215 to 216 °C. At human D2L receptor, this molecule registered a Ki of 23 nM. Further, at human 5-HT6 receptor, the Ki turned out to be 916 nM. The molecule also came in with a Ki at human 5-HT7b receptor of 85 nM. The Ki on human 5-HT1A receptor amounted to 73 nM.

For orientation: melting point means the temperature, or range, at which the solid turns liquid. By Ki is commonly meant the equilibrium dissociation constant of an inhibitor or competing ligand from its target.
